From paper PMC5342389, “PIM kinases as therapeutic targets against advanced melanoma” (Oncotarget, 2016)

Columns and labels:
pAKTSer473 = assay: Western blot for AZD6482 target inhibition; format: cell-based, human; settings: increasing doses, 72 h
Method: Since PIM kinases and AKT share common downstream effectors, we hypothesized that inhibiting both PIM and PI3K activity would prevent pathway compensation, enhance melanoma cell death compared to each single agent, and maintain low activity of AKT and STAT3.
Supplementary Figure S5: AZD6482 target inhibition. Increasing doses of the PI3Kβ inhibitor AZD6482 were used to treat melanoma cells for 72 h before lysates were collected and probed for pAKTSer473 and total protein. Hsp90 was used as a loading control. […]
combination. To facilitate statistical analysis of synergy effects, we used a grid-like design of constant ratio drug combinations. Viability was calculated relative to DMSO controls in each plate and the mean of three experiments provided. Synergy was calculated for combination experiments using the Bliss formula. […]
observed combination effects. […]

[1] = test system: collagen-embedded melanoma spheroids; assay: LIVE/DEAD viability/cytotoxicity assay on 3D spheroids; settings: SGI-1776 [5 μM] or AZD6482 [10 μM] as single agents or in combination, 72 h
[2] = test system: 1205Lu, WM983B, and 451Lu; assay: Western blot of adherent (2D) melanoma cells; format: cell-based, human; settings: 10 μM, 12 h
[3] = test system: Melanoma cells and normal fibroblasts; assay: alamarBlue proliferation assay, adherent cultures, 72 h; format: cell-based, human; settings: increasing doses, normalized to DMSO
1205Lu tumors = assay: Western blot of mouse tumor lysates; format: in vivo, mice; settings: tumor lysates 17 days following treatment
Excerpt: Error bars represent SEM, n = 10 mice. […] Histone H3 served as loading control.
We next determined the expression levels of PIM1, −2 and −3 in two mouse tumors from the in vivo combination experiment shown in Figure 6A. Tumor samples were collected following 3 days of treatment and PIM expression levels were not consistently changed across treatment groups; however, the presence of PLX4720 correlated with higher PIM2 levels (Figure 6B). To understand signaling changes leading to our observed drug response in vivo, western blot analyses were then conducted on tumor lysates isolated 17 days following treatment (Figure 6C).
For immunoblots, proteins were extracted as described in [49], and 50 μg of cell extract were resolved on a 10% polyacrylamide-SDS gel before being transferred onto a polyvinylidene membrane (BioRad, Hercules, CA). All primary antibodies were purchased from Cell Signaling Technologies (Beverly, MA), except for the PIM1 antibody, which was purchased from Abcam (Cambridge, MA). All membranes were probed with primary antibodies overnight at 4°C, then incubated with Alexa Fluor-labeled secondary antibodies (IRDye 680LT goat-anti mouse, IRDye 800CW goat-anti rabbit (LI-COR, Lincoln, NE)) for 1h and scanned with the Odyssey system (LI-COR, Lincoln, NE). […]

[4] = test system: Melanoma cell lines and normal fibroblasts; assay: propidium iodide staining (cell death); format: cell-based; settings: 10 μM, 72 h
[5] = in vivo
PIM1 = settings: cited from earlier work
AML xenografts = settings: cited from earlier work

SMILES	AKT inhibition (pAKTSer473) (pAKTSer473)	spheroid invasion and cell death (LIVE/DEAD) [1]	levels of downstream PIM kinase signaling effectors [2]	total levels of PIM1, −2, or −3 [2]	proliferation response (alamarBlue), melanoma cell lines versus fibroblasts [3]	p27Kip1 levels (1205Lu tumors)	cell death / cytotoxicity (propidium iodide) [4]	total mouse weight / toxic effects [5]	IC50 (PIM1) [nM]	tumor regression (AML xenografts)
Cc1cc([C@@H](C)Nc2ccccc2C(=O)O)c2nc(N3CCOCC3)cc(=O)n2c1 [AZD6482]	confirming AKT inhibition	inhibit spheroid invasion and cause cell death	–	–	–	–	–	–	–	–
CN1CCC(CNc2ccc3ncc(-c4cccc(OC(F)(F)F)c4)n3n2)CC1 [SGI-1776]	–	inhibit spheroid invasion and cause cell death	downregulation of pBADS136, pSTAT3Y705, and pAKTS473 levels were observed	does not dramatically reduce total levels	[…]	elevated p27Kip1 levels	significantly increased cell death in the melanoma cell lines compared to normal fibroblasts	minimal effects on total mouse weight	[…]	concentration-dependent tumor regressions
